From patent publication US11446354B2, “Method of treatment” (Hexima Limited, priority 2014, dated 2022)
Like-named read-outs stand apart in the source and are kept apart here.

Legend:
[1] = type: in vitro ADME, Human; settings: for Cumulative amount through nail as percent (of applied dose): human
Method: Penetration of NaD1 through human nails was measured according to the method of Hui et al. (2002) J Pharm Sci 91(1):189-195. Human toenails were obtained from ScienceCare (USA) and washed with phosphate buffered saline (details, PBS) before being placed on a kimwipe that had been soaked in PBS for 3 h to rehydrate the nail. The nail was then placed in a plastic nail adapter with a dosing area of 0.5×0.5 cm (Permagear, USA) and a cotton bud wetted with 75 microlitres of PBS was placed in the receptor chamber in contact with the underside of the nail.
The cotton bud in contact with the underside of the nail was removed after 24 h and every 24 h following. Protein that had passed through the nail was recovered from the cotton bud by washing twice with 500 μL of 0.1% v/v trifluoroacetic acid. Recovered protein was quantified using RP-HPLC.

[2] = system: Trichophyton rubrum, T. interdigitale, Microsporum fulvum and C. albicans; test: Inhibition assays summarised across the range of fungal pathogens; type: cell-based; settings: summary of Table 3
Method: (§1) The inhibitory effects of the plant defensins on the growth of Trichophyton rubrum, T. interdigitale, Microsporum fulvum and C. albicans (obtained from the National Mycology Reference Centre, South Australia Pathology at the Women's and Children's Hospital, Adelaide, Australia) are measured essentially as described by Broekaert et al. (1990) FEMS Microbiol Lett 69:55-59. Spores of T. rubrum, T. interdigitale and M. fulvum are isolated from sporulating fungus growing on 1⁄2 strength Sabouraud dextrose agar (SDA). Spores were removed from the plates by the addition of 1⁄2 strength potato dextrose broth (PDB). C. albicans cells are grown in Yeast Peptone Broth (YPD) for 16 h. Spore and cell concentrations are measured using a hemocytometer. Antifungal assays are conducted in 96 well microtitre plates essentially as herein described. Wells are loaded with 20 μL of filter sterilized (0.22 μm syringe filter, Millipore) defensin (10× stock for each final concentration) or water and 80 μL of 5×10^4 spores/mL (T. rubrum, T, interdigitale, M. fulvum) or 5,000 cells/mL (C. albicans) in 1⁄2 strength PDB. The plates are incubated at 30° C. Fungal growth is assayed by measuring optical density at 595 nm ([…]) using a microtitre plate reader (SpectraMax Pro M2; Molecular Devices. Growth is allowed to proceed until the optical density (OD) of the fungus in the absence of any test defensin reached an OD of 0.2. Each test is performed in duplicate.

[3] = system: Human monocytic lymphoma (U937) cells; type: cell-based
Method: Human monocytic lymphoma (U937) cells are cultured in RPMI-1640 medium. All culture media are supplemented with 5-10% v/v fetal calf serum, 100 U/ml of penicillin, and 100 μg/ml of streptomycin. Cell lines are cultured at 37° C. in a humidified atmosphere containing 5% v/v CO2. Adherent cell lines are detached from the flask by adding a mixture containing 0.25% v/v trypsin and […]. A flow cytometry-based propidium iodide (PI) uptake assay is performed to analyze the ability of plant defensins to permeabilize U937 cells (essentially as described in Poon et al, 2014). Briefly, cells are suspended to 1×10^6 cells/ml in 0.1% v/v BSA/RPMI-1640 and incubated with plant defensins (10 μM) at 37° C. for 30 min. Samples are added to PBS containing a final concentration of 1 μg/ml PI and placed on ice. Samples are then analyzed immediately using the BD FACSCanto II Flow Cytometer and BD FACSDiva software v6.1.1. The resultant flow cytometry data is analyzed using FlowJo software v8.8.6. Cells are gated appropriately based on forward scatter and side scatter and cell permeabilization is defined by PI-positive staining.

C. albicans = test: Antifungal growth inhibition assay, C. albicans; type: cell-based, Candida albicans; settings: summary of Table 3
Method: as §1, with “Wells are loaded with 20 μL of filter sterilized (0.22 μm syringe filter, Millipore) defensin (10× stock for each final concentration) or water and 80 μL of 5×10^4 spores/mL (T. rubrum, T, interdigitale, M. fulvum) or 5,000 cells/mL (C. albicans) in 1⁄2 strength PDB. The plates are incubated at 30° C.” left out

Microsporum fulvum = test: Antifungal growth inhibition assay, Microsporum fulvum; type: cell-based; settings: summary of Table 3
Method: as §1, with “Wells are loaded with 20 μL of filter sterilized (0.22 μm syringe filter, Millipore) defensin (10× stock for each final concentration) or water and 80 μL of 5×10^4 spores/mL (T. rubrum, T, interdigitale, M. fulvum) or 5,000 cells/mL (C. albicans) in 1⁄2 strength PDB. The plates are incubated at 30° C.” left out

Escherichia coli = test: Inhibition of the growth of Escherichia coli; type: cell-based; settings: 0.1625-10 μM, 18 hours, 37° C.
Method: A single E. coli colony was used to inoculate 5 ml of Luria-Bertani media and grown overnight at 37° C. The following day, the optical density of the culture was measured and the E. coli diluted to an optical density at 600 nm (OD600) of 0.01 in Mueller-Hinton Broth. Diluted E. coli were added to 96-well plates with defensins at concentrations of 10 μM, 5 μM, 2.5 μM, 1.25 μM, 0.625 μM, 0.3125 μM or 0.1625 μM. Plates were read at OD595 to obtain time zero data points. Plates were incubated at 37° C. for 18 hours before reading again at OD595 to assess the amount of E. coli growth.

Molecule: Cc1cc(C2CCCCC2)n(O)c(=O)c1 [Ciclopirox]
- Cumulative amount through nail as percent (of applied dose) ([1]; 3 day, 10 %): 0.03%
- Cumulative amount through nail as percent (of applied dose) ([1]; 6 day, 10 %): 0.03%
- Cumulative amount through nail as percent (of applied dose) ([1]; 9 day, 10 %): 0.04%
- Cumulative amount through nail as percent (of applied dose) ([1]; 12 day, 10 % solution): 0.05%
- Cumulative amount through nail as percent (of applied dose) ([1]; 15 day, 10 % solution): 0.06%

Molecule: C=C1CCN([C@H](C)[C@](O)(Cn2cncn2)c2ccc(F)cc2F)CC1 [Efinaconazole]
- Cumulative amount through nail as percent (of applied dose) ([1]; 1 day, 10 % solution): 0.2%
- Cumulative amount through nail as percent (of applied dose) ([1]; 2 day, 10 % solution): 0.4%
- Cumulative amount through nail as percent (of applied dose) ([1]; 3 day, 10 %): 0.7%
- Cumulative amount through nail as percent (of applied dose) ([1]; 4 day, 10 % solution): 0.8%
- Cumulative amount through nail as percent (of applied dose) ([1]; 6 day, 10 %): 1.3%
- Cumulative amount through nail as percent (of applied dose) ([1]; 9 day, 10 %): 2.0%
- Cumulative amount through nail as percent (of applied dose) ([1]; 12 day, 10 % solution): 2.7%
- Cumulative amount through nail as percent (of applied dose) ([1]; 15 day, 10 % solution): 3.3%

Molecule: OB1OCc2cc(F)ccc21 [Tavaborole]
- Cumulative amount through nail as percent (of applied dose) ([1]; 3 day, 10 %): 2.0%
- Cumulative amount through nail as percent (of applied dose) ([1]; 6 day, 10 %): 3.7%
- Cumulative amount through nail as percent (of applied dose) ([1]; 9 day, 10 %): 6.8%
- Cumulative amount through nail as percent (of applied dose) ([1]; 12 day, 10 % solution): 10.7%
- Cumulative amount through nail as percent (of applied dose) ([1]; 15 day, 10 % solution): 14.9%

Molecule: HXL001: Class I plant defensin from Zea mays, SEQ ID NO: 4 (RHCLSQSHRFKGLCMSSNNCANVCQTENFPGGECKAEGATRKCFCKKIC; HXL001 Zea mays)
- Antifungal activity across the range of fungal pathogens, result in words [2]: did not display any activity at the concentrations tested
- U937 cells permeabilized (PI-positive) [3]: less than 2%

Molecule: HXL002: Class I plant defensin from Triticum aestivum, SEQ ID NO: 5 (RDCLSQSHKFKGACLSSSNCAAVCRTENFPDGECHTHNFARKCFCKRAC; HXL002 Triticum aestivum)
- Inhibition of C. albicans, result in words (C. albicans): very poor inhibitors
- Inhibition of M. fulvum, result in words (Microsporum fulvum): very poor inhibitors
- U937 cells permeabilized (PI-positive) [3]: less than 2%

Molecule: HXL004: Class I plant defensin from Nicotiana benthamiana, SEQ ID NO: 7 (RTCESQSHRFKGLCFSRSNCASVCHTEGFNGGHCRGFRRRCFCTRHC; HXL004 Nicotiana benthamiana)
- Antifungal activity across the range of fungal pathogens, result in words [2]: intermediate activity across the range of pathogens
- Nail penetration, result in words [1]: able to penetrate nails faster and more effectively than the active ingredients of current topical onychomycosis therapies
- Growth of E. coli in the presence of defensin (Escherichia coli): inhibited the growth of E. coli in a concentration dependent manner
- U937 cells permeabilized (PI-positive) [3]: 13%

Molecule: HXL005: Class I plant defensin from Taraxcum kok-saghyz, SEQ ID NO: 8 (KMCQTTSHAFSCVNDSGCSGSCEKQGFASGKCDGVRRRCTCYKKC; HXL005 Taraxcum kok-saghyz)
- Antifungal activity across the range of fungal pathogens, result in words [2]: most effective plant defensins across the range of fungal pathogens
- U937 cells permeabilized (PI-positive) [3]: ~25%

Molecule: HXL009: Class I plant defensin from Zea mays, SEQ ID NO: 9 (TVCMRHNNFYHGPCMSNKDCANSCVQHNLGVGGYCRGKIPFNKECMCTFEC; HXL009 Zea mays)
- Antifungal activity across the range of fungal pathogens, result in words [2]: did not display any activity at the concentrations tested
- U937 cells permeabilized (PI-positive) [3]: less than 2%

Molecule: HXL012: Class I plant defensin from Amaranthus retroflexus, SEQ ID NO: 10 (RMCKAPSKLFRGMCGIRDSNCDSVCRAEGMAAGDCHGLRRRCICSRPC; HXL012 Amaranthus retroflexus)
- Antifungal activity across the range of fungal pathogens, result in words [2]: intermediate activity across the range of pathogens
- Nail penetration, result in words [1]: did not penetrate the nail
- U937 cells permeabilized (PI-positive) [3]: less than 2%

Molecule: HXL013: Class I plant defensin from Glycine max, SEQ ID NO: 11 (KDCLTRRHGFQGRCLFDRQCAHVCRSDGFIGGQCRGPLRKCFCSRPC; HXL013 Glycine max)
- Antifungal activity across the range of fungal pathogens, result in words [2]: intermediate activity across the range of pathogens
- U937 cells permeabilized (PI-positive) [3]: 5%

Molecule: HXL015: Class I plant defensin from Oryza sativa, SEQ ID NO: 12 (RHCLSQSHRFKGMCVSSNNCANVCRTESFPDGECKSHGLERKCFCKKVC; HXL015 Oryza sativa)
- Antifungal activity across the range of fungal pathogens, result in words [2]: intermediate activity across the range of pathogens

Molecule: HXL035: Class I plant defensin from Picramnia pentandra, SEQ ID NO: 2 (KVCTKPSKFFKGLCGFDRDCTVACKKEGLASGFCQNKGFFNVVCVCRKPC; HXL035 Picramnia pentandra)
- Antifungal activity across the range of fungal pathogens, result in words [2]: most effective plant defensins across the range of fungal pathogens

Molecule: HXP4: Artificial defensin variant, Loop1B of a Class I defensin replaces that of the Solanaceous Class II defensin, SEQ ID NO: 21 (RECKTESHRFKGPCITKPPCRKACISEKFTDGHCSKILRRCLCTKPC; HXP4)
- U937 cells permeabilized (PI-positive) [3]: 13%

Molecule: LL37: human antimicrobial peptide LL37 used as a control (LLGDFFRKSKEKIGKEFKRIVQRIKDFLRNLVPRTES; Antibacterial peptide LL-37; UniProt P49913 134-170, looked up) [reference compound]
- Growth of E. coli in the presence of defensin (Escherichia coli): inhibited the growth of E. coli in a concentration dependent manner

Molecule: NaD1: Solanaceous Class II plant defensin from Nicotiana alata, SEQ ID NO: 18 (RECKTESNTFPGICITKPPCRKACISEKFTDGHCSKILRRCLCTKPC; NaD1 Nicotiana alata) [reference compound]
- Nail penetration, result in words [1]: able to penetrate nails faster and more effectively than the active ingredients of current topical onychomycosis therapies
- Growth of E. coli in the presence of defensin (Escherichia coli): did not inhibit growth of E. coli at the concentrations tested
- U937 cells permeabilized (PI-positive) [3]: 33%
